Patent US20100227853A1, “INHIBITORS OF CYCLIC AMP PHOSPHODIESTERASES” (Trustees of Boston College, priority 2008, published 2010)

How the values were obtained:
[1] = biological target: T1, PDE4B3 (Mus musculus, UniProt Q8VBU5); assay: 5FOA growth assay in fission yeast strain expressing PDE4B3; assay type: cell-based, Murine; conditions: for Composite Z score, PDE4B3: high throughput 5FOA growth screen
T1 construct: targets used in the assays are full-length proteins (as opposed to simply the catalytic domain); expressed in transfected cells; host or cells: Schizosaccharomyces pombe, PDE gene integrated in place of cgs2
T1 sequence (Q8VBU5 1-721): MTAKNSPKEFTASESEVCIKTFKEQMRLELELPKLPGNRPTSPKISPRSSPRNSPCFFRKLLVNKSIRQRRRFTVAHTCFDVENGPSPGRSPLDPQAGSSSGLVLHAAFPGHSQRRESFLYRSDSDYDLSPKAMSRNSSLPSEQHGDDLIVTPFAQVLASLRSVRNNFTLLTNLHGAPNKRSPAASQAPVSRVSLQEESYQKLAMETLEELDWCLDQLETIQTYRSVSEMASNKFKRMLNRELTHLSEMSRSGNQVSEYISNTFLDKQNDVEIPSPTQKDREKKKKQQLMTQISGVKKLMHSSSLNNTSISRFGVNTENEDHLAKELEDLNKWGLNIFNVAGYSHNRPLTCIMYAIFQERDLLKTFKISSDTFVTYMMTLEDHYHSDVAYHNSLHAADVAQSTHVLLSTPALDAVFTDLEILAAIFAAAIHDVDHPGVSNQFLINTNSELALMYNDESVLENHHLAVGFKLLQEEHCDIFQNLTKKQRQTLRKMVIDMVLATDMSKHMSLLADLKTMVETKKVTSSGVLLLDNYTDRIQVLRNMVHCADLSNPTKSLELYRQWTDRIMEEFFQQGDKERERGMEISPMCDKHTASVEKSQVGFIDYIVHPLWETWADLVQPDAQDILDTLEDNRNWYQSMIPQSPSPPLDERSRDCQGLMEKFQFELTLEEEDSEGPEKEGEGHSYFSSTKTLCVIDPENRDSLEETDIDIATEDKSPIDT
Method: (§1) High throughput drug screens were carried out at the Broad Institute's Chemical Biology Program screening facility (Broad Institute, Cambridge, Mass.). Depending upon the strain, cultures were pregrown to exponential phase in EMM complete medium containing from 0.5 to 2.5 mM cAMP to repress fbp1-ura4 transcription. […] Starting cell concentrations ranged from 0.5×10^5 to 4×10^5 cells/ml depending on the screening strain. […] Other positive control dishes contained 5 mM cAMP in the 5FOA medium. Cultures were grown for 48 hours at 30° C., sealed in an airtight container with moist paper towels to prevent evaporation. Optical densities (OD600) of cultures were measured using a microplate reader. Bioinformatic analysis of the results to determine composite Z scores was performed as previously described^30, 31.
(§2) To determine whether the 5FOA growth phenotype could be exploited for high throughput drug screening, strains expressing PDE2A, PDE4A, PDE4B, or PDE8A were pre-grown in EMM medium containing cAMP and then transferred to 5FOA medium in 384 well microtiter plates in the presence or absence of cAMP. OD600 measurements were taken after 48 hours incubation at 30° C.
(§3) Cells were pregrown in EMM medium [MP Biomedicals (Solon, Ohio), 3% glucose, filter-sterilized to avoid carmelization, which would introduce variability into the optical density of the medium] containing from 0 mM to 2.5 mM cAMP (or either 0.5 mM or 1.0 mM cGMP). This was to repress expression of the fbp1-ura4 reporter prior to exposure of cells to 5FOA medium. Cells were grown at 30° C. to exponential phase (approximately 10^7 cells/ml). […] Starting cell concentrations ranged from 0.5×10^5 to 4×10^5 cells/ml depending on the screening strain. […] Other positive control dishes contained 5 mM cAMP in the 5FOA medium for PDEs that lack appropriate control compounds. Cultures were grown for 48 hours at 30° C., sealed in an airtight container with moist paper towels to prevent evaporation. Optical densities (OD600) of cultures were measured using a microplate reader. Bioinformatic analysis of the results to determine composite Z scores was performed as previously described (1, 3).

[2] = biological target: T2, PDE4A1 (Mus musculus, UniProt O89084); assay: 5FOA growth assay (high throughput screen, ED50) in fission yeast strain expressing PDE4A1; assay type: cell-based; conditions: high throughput 5FOA growth screen; greater than 8.53 = statistically-significant inhibitor
T2 construct: targets used in the assays are full-length proteins (as opposed to simply the catalytic domain); expressed in transfected cells; host or cells: Schizosaccharomyces pombe, PDE gene integrated in place of cgs2
T2 sequence (O89084 1-610 isoform O89084-2): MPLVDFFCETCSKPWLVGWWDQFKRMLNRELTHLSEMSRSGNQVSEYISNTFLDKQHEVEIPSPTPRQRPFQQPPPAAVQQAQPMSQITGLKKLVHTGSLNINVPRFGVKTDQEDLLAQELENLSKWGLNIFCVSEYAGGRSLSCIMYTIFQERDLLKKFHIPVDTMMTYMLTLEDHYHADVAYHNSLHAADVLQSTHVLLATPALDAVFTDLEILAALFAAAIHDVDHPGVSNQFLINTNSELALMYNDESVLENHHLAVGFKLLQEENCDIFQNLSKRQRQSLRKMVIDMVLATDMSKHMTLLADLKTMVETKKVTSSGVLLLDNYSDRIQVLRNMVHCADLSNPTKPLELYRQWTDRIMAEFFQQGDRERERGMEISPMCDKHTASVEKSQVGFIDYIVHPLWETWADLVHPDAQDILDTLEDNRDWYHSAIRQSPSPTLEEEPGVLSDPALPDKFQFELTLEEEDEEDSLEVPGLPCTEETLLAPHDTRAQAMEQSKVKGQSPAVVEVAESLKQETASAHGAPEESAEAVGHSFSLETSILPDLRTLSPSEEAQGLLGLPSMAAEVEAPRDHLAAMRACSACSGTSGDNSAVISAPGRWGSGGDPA
Method: as §1, §2, §3

| Compound | Composite Z score, PDE4B3 [1] | Composite Z score, PDE4A1 [2] | 1 Assay (20 uM) 4B3 ([1]; 20 uM) [ND ND ND ND] |
| --- | --- | --- | --- |
| Cc1sc2ncnc(NCCc3ccc4c(c3)OCCO4)c2c1C [Compound 1426G17] | 25.393 | 10.127 |  |
| COc1ccc(CCNc2ncnc3sc(C)c(C)c23)cc1OC [Compound 1423F01] | 4.2065 | 0.9043 |  |
| CCN(CC)c1ncnc2sc3c(c12)CCC(C#N)(c1ccccc1)C3 (stereo not shown) [Compound 1380G04] | −0.752 | 20.429 |  |
| CCOC(=O)c1sc2nc(CC(=O)OC)nc(NCC(=O)OC)c2c1C [Compound 1379F18] | 3.0462 | −0.126 |  |
| COCCCNC(=O)c1sc2ncnc(N3CCN(c4ccccc4F)CC3)c2c1C [Compound 1159C19] |  | 2.6846 |  |
| Cc1c(C(=O)Nc2ccc3c(c2)OCO3)sc2ncnc(N3CCc4ccccc4C3)c12 [Compound 1159C21] |  | 3.9976 |  |
| CCOC(=O)c1sc2nc(CC(=O)OC)nc(NCCN3CCOCC3)c2c1C [Compound 1158A03] |  | 0.3744 |  |
| Cc1c(C(=O)NCc2ccco2)sc2ncnc(N3CCc4ccccc4C3)c12 [Compound 1159I19] |  | 26.235 |  |
| CCN(CC)c1ncnc2sc(C)c(C)c12 [Compound 1403J21] | 0.0332 | 1.647 |  |
| Cc1c(C(=O)NCc2ccccn2)sc2ncnc(N3CCc4ccccc4C3)c12 [Compound 1159O19] |  | 11.945 |  |
| Cc1c(C(=O)NCc2ccco2)sc2ncnc(N3CCN(c4ccccc4F)CC3)c12 [Compound 1159O17] |  | 3.616 |  |
| Cc1sc2ncnc(NC3CCN(Cc4ccccc4)CC3)c2c1C [Compound 1426C09] | −0.516 | −0.147 |  |
| N#Cc1sc(C(N)=O)c(-c2ccco2)c1-c1ccco1 [1449, A02] |  |  | 1.8244 |
| CCN(CC)CCCNC(=O)c1sc2ncnc(N3CCN(c4ccc(OC)cc4)CC3)c2c1C [Compound 1158C03] |  | 2.6937 |  |
| CC1CCc2c(sc3nc(SCC(N)=O)nc(NCc4ccccc4)c23)C1 (stereo not shown) [Compound 1157L22] |  | 2.3434 |  |
| CCOC(=O)c1sc2ncnc(N3CCC4(CC3)OCCO4)c2c1C [Compound 1159G15] |  | 5.3411 |  |
| COCCCNC(=O)c1sc2ncnc(N3CCc4ccccc4C3)c2c1C [Compound 1159M19] |  | 5.0576 |  |
| COC(=O)c1ccccc1NC(=O)c1sc2ncnc(N3CCN(c4ccccn4)CC3)c2c1C [Compound 1159K09] |  | 0.5937 |  |
| Cc1c(C(=O)NCc2ccco2)sc2ncnc(N3CCN(c4ccccc4)CC3)c12 [Compound 1159G19] |  | 7.7398 |  |
| CCCCNC(=O)c1sc2ncnc(N3CCc4ccccc4C3)c2c1C [Compound 1159K19] |  | 5.4376 |  |

Second part, the molecule after the results:

| Composite Z score, PDE4B3 [1] | Composite Z score, PDE4A1 [2] | 1 Assay (20 uM) 4B3 ([1]; 20 uM) [ND ND ND ND] | Compound |
| --- | --- | --- | --- |
| −1.074 | 0.4867 |  | CC1CCc2c(sc3ncnc(NCCN4CCOCC4)c23)C1 (stereo not shown) [Compound 1425N16] |
| −0.071 | −0.033 |  | Cc1nc(NCc2ccco2)c2c3c(sc2n1)CCC3 [Compound 1426I13] |
| 31.009 | 8.4736 |  | C=CCNc1ncnc2sc3c(c12)CCCC3 [Compound 1435C20] |
|  | 1.1811 |  | COCCNC(=O)c1sc2ncnc(N3CCN(c4ccccn4)CC3)c2c1C [Compound 1159M09] |
| 0.0693 | 0.4682 |  | CCC(CO)Nc1nc(C)nc2sc3c(c12)CCCC3 (stereo not shown) [Compound 1426O11] |
| 4.7765 | 4.6254 |  | c1nc(N2CCCCC2)c2c3c(sc2n1)CCC3 [Compound 1421A20] |
| −0.936 | 0.1866 |  | CCC(CO)Nc1nc(C)nc2sc3c(c12)CCC3 (stereo not shown) [Compound 1422J17] |
| 0.501 | 1.7161 |  | c1cncc(CNc2ncnc3sc4c(c23)CCCC4)c1 [Compound 1423I22] |
| 21.717 | 3.4896 |  | Cc1nc(N2CCOCC2)c2c(C)c(C(=O)Nc3cccc(Cl)c3C)sc2n1 [Compound 1424K08] |
| −2.398 | −1.217 |  | CCC(CO)Nc1nc(C)nc2sc3c(c12)CCC3 (stereo not shown) [Compound 1380M03] |
| −1.076 | 1.2506 |  | N#CC1(c2ccccc2)CCc2c(sc3ncnc(N4CCCC4)c23)C1 (stereo not shown) [Compound 1380I09] |
| 1.2391 | 0.5702 |  | CCOC(=O)CSc1nc(NC)c2c3c(sc2n1)CCCC3 [Compound 1439B09] |
| −2.898 | 2.2036 |  | Cc1nc(N2CCC(C)CC2)c2c(C)c(C(=O)N3CCOCC3)sc2n1 [Compound 1424A12] |
| −0.935 | 36.663 |  | O=C(Nc1ncnc2sc3c(c12)CCC3)c1ccccc1 [Compound 1380I07] |
|  | −0.078 |  | Cc1nc(N2CCN(C)CC2)c2c(C)c(C(=O)N3CCN(c4cccc(Cl)c4)CC3)sc2n1 [Compound 1158G03] |
|  | 1.9801 |  | Cc1c(C(=O)NCC2CCCO2)sc2ncnc(N3CCN(c4ccccc4F)CC3)c12 (stereo not shown) [Compound 1159M17] |
| 0.0445 | 12.819 |  | CC(C)N(C)c1ncnc2sc3c(c12)CCC3 [Compound 1407G21] |
| 1.1976 | 1.7784 |  | COc1ccccc1C(=O)Nc1ncnc2sc3c(c12)CCCC3 [Compound 1415M01] |
| 0.5336 | 1.6661 |  | c1cn(CCCNc2ncnc3sc4c(c23)CCCC4)cn1 [1435 E20] |
| 0.6059 | 0.327 |  | Cc1nc(N2CCCN(C)CC2)c2c3c(sc2n1)CCC3 [Compound 1415C05] |
|  | 17.363 |  | COc1cc(NC(=O)c2sc3nc(C)nc(N4CCCCC4C)c3c2C)cc(OC)c1OC (stereo not shown) [Compound 1159M15] |
|  | 0.8757 |  | COc1cc(NC(=O)c2sc3nc(C)nc(N4CCOCC4)c3c2C)cc(OC)c1OC [Compound 1159O09] |
|  | 1.0613 |  | Cc1c(C(=O)NCC2CCCO2)sc2ncnc(N3CCN(c4ccccc4)CC3)c12 (stereo not shown) [1159 E19] |
|  | 2.4477 |  | CCOC(=O)CNC(=O)c1sc2ncnc(N3CCN(c4ccccc4F)CC3)c2c1C [Compound 1159A19] |
